Laboratory results: publication PMC2840032, “Discovery of Fragment Molecules That Bind the Human Peroxiredoxin 5 Active Site” (PLoS ONE, 2010)

Columns and labels:
human PRDX5 [1] = molecular target: T1, human PRDX5 (Homo sapiens, UniProt P30044); test: NMR screening: STD factor (f STD) of fragments with PRDX5; type: binding; settings: for f STD: F152 compared with D3; for STD factor (f STD): Figure 2, relative degree of saturation normalized to that of F090
T1 construct: 6xHis (N); made in house; host or cells: E. coli strain M15 (pRep4)
T1 sequence (P30044 53-214): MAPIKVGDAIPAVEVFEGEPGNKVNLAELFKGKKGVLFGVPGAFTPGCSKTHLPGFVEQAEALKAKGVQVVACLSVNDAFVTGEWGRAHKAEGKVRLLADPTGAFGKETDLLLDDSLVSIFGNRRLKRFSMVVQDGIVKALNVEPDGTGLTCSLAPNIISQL
Experimental: All spectra were acquired at 20°C with a Varian Inova 600 MHz NMR spectrometer, equipped with a standard 5 mm triple-resonance inverse probe with a z-axis field gradient, actively shielded, and with an autosampler robot. The NMR samples were prepared with a robot TECAN Miniprep 60. For 175 fragments, 32 NMR tubes were prepared with 20 µM of the reduced protein and 600 µM fragments. For 25 fragments (6 NMR samples) that were not soluble at 600 µM in water, the final concentration in the NMR tube was set to 200 µM. All samples contained 1 mM DTT. […] Control 1D ^1H spectra preceded all experiments to assess the purity and stability of the fragments. NMR screening was achieved using 1D STD [30] and Waterlogsy experiments. The parameters used were the same as previously described. All NMR spectra were processed with the Varian VnmrJ software.
(§1) KD values were determined by fitting the plot of [L]tot vs. f STD as previously published.

human PRDX5 [2] = molecular target: T1, human PRDX5; test: Thioredoxin peroxidase activity inhibition assay; type: biochemical; settings: 0–600 µM
Experimental: Inhibition of thioredoxin peroxidase activity was assayed using thioredoxin peroxidase assay in a 96-well plate reader essentially as described by Kim et al. [48] and Theys et al. [49]. Briefly, the spectrometric assay was performed in a 160 µl reaction mixture containing 500 µM NADPH, 4 µM recombinant S.cerevisiae thioredoxin, 2 µM recombinant S.cervisiae thioredoxin reductase, 0.6 µM human recombinant PRDX5 and increasing concentrations (0 to 6 mM) of fragments (from stock solutions in DMSO) in PBS 0.1M (pH 7.4). The reaction was initiated by adding H2O2 at the final concentration of 100 µM. NADPH oxidation was monitored by following absorbance at 340 nm for 30 min at 37°C. The initial rate of reaction was calculated using the linear portion of the curve and was expressed as the amount of NADPH oxidized per min. The IC50 was calculated with the percentage of remaining thioredoxin peroxidase activity. Measurements were performed in quadruplicates.

[3] = Solubility in water / in the assay; type: physicochemical; settings: for solubility in water: for KD measurement by STD titration; for solubility in the assay: thioredoxin peroxidase inhibition assay
Source text: We previously designed a small generalist library of 60 fragments and used it to elaborate an inhibitor of the Creatine kinase protein [27], based on the identification of an initial fragment by NMR screening. Here, the library was enlarged and contains 200 fragments that correspond to small commercial compounds with physicochemical properties defined by the rule of three. The 140 newly added fragments were chosen so as to enhance the diversity of the library in terms of size, shape and chemical functionalities. […] Waterlogsy experiments were recorded to detect possible aggregation as LOGSY effects are characteristic of high molecular weight compounds in water. When the molecules were not soluble at 600 µM, solutions were tested at 200 µM. If not soluble, the molecules were rejected from the selection. Then, to optimize the experimental time and to reduce the protein quantity required for the NMR screening experiments, fragments were pulled into mixtures of 3 to 6 molecules with minimum spectral overlap. NMR spectra of the mixtures were recorded after 3 months to confirm the absence of degradation of the compounds.
The compounds of the library were chosen from Aldrich or Acros online catalogs with SHAPES-like criteria [40]–[42] and had to fit the rule of three. Aqueous solubility was checked for all compounds by recording ^1H 1D NMR spectrum and Waterlogsy spectrum, [43]. 110 mM stock solutions of the library compounds were prepared in DMSO-d 6 and conserved at −20°C. ^1H 1D NMR spectrum were recorded to check that no degradation occurs over 3 months. Compounds were mixed by 3 to 6 to decrease the NMR experimental time as well as the protein quantity. Criteria for the compound selection for the mixtures were the absence of overlapping resonances in the 1D NMR spectra. The library contained 200 validated fragments.

human PRDX5 [4] = molecular target: T1, human PRDX5; test: KD measurements by STD factor variation upon titration; type: binding
Experimental: as §1

SMILES	STD factor (f STD) (human PRDX5 [1])	solubility in water [3]	other results
Cc1ccc(O)c(O)c1 [D3, 4-methyl-catechol]	–	–	f STD (human PRDX5 [1]): 66%
Oc1ccccc1-c1ccccc1 [F012]	88	too low	inhibitory activity on thioredoxin peroxidase activity (human PRDX5 [2]): no inhibitory activity
Oc1cccc2[nH]c3ccccc3c12 [F069]	42	too low	–
O=C(c1ccccc1)c1ccc(O)cc1O [F082]	69	too low	–
Oc1ccccc1Cc1ccccc1O [F090, bis-(2-hydroxyphenyl)-methan]	100	–	Kd (human PRDX5 [4]; STD titration, reduced PRDX5, read-out: dissociation constant KD): 1.2 ± 0.4 mM; ligand efficiency (human PRDX5 [4]; free energy of binding divided by the number of heavy atoms): 0.42 kcal/mol; solubility in the assay [3]: insufficient solubility
Oc1ccc(-c2ccc(O)cc2)cc1 [F093]	76	too low	solubility in the assay [3]: insufficient solubility
Oc1ccccc1O [F152, catechol]	32	–	f STD (human PRDX5 [1]): 32%
